Measured values published in patent publication US6974831B2, “sPLA2 inhibitors” (Eli Lilly and Company, priority 2000, dated 2005).

Assays:
[1] = biological target: T1, recombinant human secreted phospholipase A2 (Homo sapiens, UniProt P14555); experiment: chromogenic assay of sPLA2 inhibition (diheptanoyl thio-PC / DTNB, 96 well microtiter plates); type: biochemical; conditions: absorbance at 405 nanometers, 40° C. for 30 minutes, pH 7.5, titrated in triplicate and averaged
T1 sequence (P14555 21-144): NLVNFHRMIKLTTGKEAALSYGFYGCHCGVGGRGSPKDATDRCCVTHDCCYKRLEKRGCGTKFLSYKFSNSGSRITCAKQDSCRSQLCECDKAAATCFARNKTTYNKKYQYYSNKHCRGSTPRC
Source text: The following chromogenic assay procedure was used to identify and evaluate inhibitors of recombinant human secreted phospholipase A2. The assay described herein has been adapted for high volume screening using 96 well microtiter plates. A general description of this assay method is found in the article, “Analysis of Human Synovial Fluid Phospholipase A2 on Short Chain Phosphatidylcholine-Mixed Micelles: Development of a Spectrophotometric Assay Suitable for a Microtiterplate Reader”, by Laure J. Reynolds, Lori L. Hughes, and Edward A Dennis, Analytical Biochemistry, 204, pp. 190-197, 1992 (the disclosure of which is incorporated herein by reference):
REACTION BUFFER— • CaCl2.2H2O (1.47 g/L) • KCl (7.455 g/L) • Bovine Serum Albumin (fatty acid free) (1 g/L) • (Sigma A-7030, product of Sigma • Chemical Co., St. Louis Mo., USA) • TRIS HCl (3.94 g/L) • pH 7.5 (adjust with NaOH)
ENZYME BUFFER— • 0.05 NaOAc.3H2O, pH 4.5 • 0.2 NaCl • Adjust pH to 4.5 with acetic acid
DTNB—5,5′-dithiobis-2-nitrobenzoic acid
RACEMIC DIHEPTANOYL THIO—PC • racemic 1,2-bis(heptanoylthio)-1,2-dideoxy-sn-glycero-3-phosphorylcholine • TRITON X-100™ prepare at 6.249 mg/ml in reaction buffer to equal […].
A measured volume of racemic dipheptanoyl thio PC supplied in chloroform at a concentration of 100 mg/ml is taken to dryness and redissolved in 10 millimolar TRITON X-100™ nonionic detergent aqueous solution. Reaction Buffer is added to the solution, then DTNB to give the Reaction Mixture.
The reaction mixture thus obtained contains 1 mM diheptanoly thio-PC substrate, 0.29 mm Triton X-100™ detergent, and 0.12 mm DTMB in a buffered aqueous solution at pH 7.5.
• 1. Add 0.2 ml reaction mixture to all wells; • 2. Add 10 ul test compound (or solvent blank) to appropriate wells, mix 20 seconds; • 3. Add 50 nanograms of sPLA2 (10 microliters) to appropriate wells; • 4. Incubate plate at 40° C. for 30 minutes; • 5. Read absorbance of wells at 405 nanometers with an automatic plate reader.
Tests were done in triplicate. Typically, compounds were tested at a final concentration of 5 ug/ml. […] Lack of color development at 405 nanometers evidenced inhibition. Compounds initially found to be active were re-assayed to confirm their activity and, if sufficiently active, IC50 values were determined. […] In all cases, % inhibition measured at 405 nanometers generated by enzyme reactions containing inhibitors relative to the uninhibited control reactions was determined. Each sample was titrated in triplicate and result values were averaged for plotting and calculation of IC50 values. IC50 values were determined by plotting log concentration versus inhibition values in the range from 10-90% inhibition.

Row | Compound | IC50 [1] | melting point
1 | Cc1c(C(=O)C(N)=O)c2c(OCC(=O)O)cc3c(c2n1Cc1ccccc1F)CCC3 [Example 9, 2-[[3-(2-Amino-1,2-dioxoethyl)-2-methyl-1-(2-fluorobenzyl)-1,6,7,8-tetrahydrocyclopent[g]indol-4-yl]oxy]acetic acid] | 0.009 µM | 
2 | COC(=O)COc1cc2c(c3c1c(C(=O)C(N)=O)c(C)n3Cc1ccccc1)CCC2 [Example 3, 2-[[3-(2-Amino-1,2-dioxoethyl)-2-methyl-1-benzyl-1,6,7,8-tetrahydrocyclo-pent[g]indol-4-yl]oxy]acetic acid methyl ester] | 0.106 µM | 
3 | COC(=O)COc1cc2c(c3c1c(C(=O)C(N)=O)c(C)n3Cc1cccc(F)c1)CCC2 [Example 6, 2-[[3-(2-Amino-1,2-dioxoethyl)-2-methyl-1-(3-fluorobenzyl)-1,6,7,8-tetrahydrocyclopent[g]indol-4-yl]oxy]acetic Acid methyl ester] | 0.132 µM | 
4 | CCc1c(C(=O)C(N)=O)c2c(OCC(=O)OC)cc3c(c2n1Cc1ccccc1)CCC3 [Example 1, 2-[[3-(2-Amino-1,2-dioxoethyl)-2-ethyl-1-benzyl-1,6,7,8-tetrahydrocyclo-pent[g]indol-4-yl]oxy]acetic acid methyl ester] | 0.108 µM | 
5 | COC(=O)COc1cc2c(c3c1c(C(=O)C(N)=O)c(C)n3Cc1ccccc1F)CCC2 [Example 8, 2-[[3-(2-Amino-1,2-dioxoethyl)-2-methyl-1-(2-fluorobenzyl)-1,6,7,8-tetrahydrocyclopent[g]indol-4-yl]oxy]acetic acid methyl ester] | 0.073 µM | 
6 | Cc1c(C(=O)C(N)=O)c2c(OCC(=O)O)cc3c(c2n1Cc1ccccc1Br)CCC3 [Example 17, 2-[[3-(2-Amino-1,2-dioxoethyl)-2-methyl-1-(2-bromobenzyl)-1,6,7,8-tetrahydrocyclopent[g]indol-4-yl]oxy]acetic acid] | 0.01 µM | 
7 | COC(=O)COc1cc2c(c3c1c(C(=O)C(N)=O)c(C)n3Cc1ccccc1Br)CCC2 [Example 16, 2-[[3-(2-Amino-1,2-dioxoethyl)-2-methyl-1-(2-bromobenzyl)-1,6,7,8-tetrahydrocyclopent[g]indol-4-yl]oxy]acetic acid methyl ester] | 0.453 µM | 
8 | Cc1c(C(=O)C(N)=O)c2c(OCC(=O)O)cc3c(c2n1Cc1ccccc1)CCC3 [Example 4, 2-[[3-(2-Amino-1,2-dioxoethyl)-2-methyl-1-benzyl-1,6,7,8-tetrahydrocyclopent[g]indol-4-yl]oxy]acetic acid] | 0.01 µM | 
9 | Cc1c(C(=O)C(N)=O)c2c(OCC(=O)O)cc3c(c2n1Cc1ccccc1)CCCC3 [Example 15, 2-[[3-(2-Amino-1,2-dioxoethyl)-1-benzyl-2-methyl-6,7,8,9-tetrahydro-1H-benz[g]indol-4-yl]oxy]acetic acid] | 0.01 µM | 
10 | Cc1c(C(=O)C(N)=O)c2c(OCC(=O)O)cc3c(c2n1Cc1cccc(F)c1)CCC3 [Example 7, 2-[[3-(2-Amino-1,2-dioxoethyl)-2-methyl-1-(3-fluorobenzyl)-1,6,7,8-tetrahydrocyclopent[g]indol-4-yl]oxy]acetic acid hydrate] | 0.01 µM | 
11 | COC(=O)COc1cc2c(c3c1c(C(=O)C(N)=O)c(C)n3Cc1ccccc1)CCCC2 [Example 14, 2-[[3-(2-Amino-1,2-dioxoethyl)-1-benzyl-2-methyl-6,7,8,9-tetrahydro-1H-benz[g]indol-4-yl]oxy]acetic acid methyl ester] | 0.109 µM | 
12 | CCc1c(C(=O)C(N)=O)c2c(OCC(=O)O)cc3c(c2n1Cc1ccccc1)CCC3 [Example 2, 2-[[3-(2-Amino-1,2-dioxoethyl)-2-ethyl-1-benzyl-1,6,7,8-tetrahydrocyclo-pent[g]indol-4-yl]oxy]acetic acid] | 0.013 µM | 
13 | COC(=O)COc1cc2c(c3c1c(C(=O)C(N)=O)c(C)n3Cc1ccc(F)cc1)CCC2 [Example 10, 2-[[3-(2-Amino-1,2-dioxoethyl)-2-methyl-1-(4-fluorobenzyl)-1,6,7,8-tetrahydrocyclopent[g]indol-4-yl]oxy]acetic acid methyl ester] | 0.806 µM | 222 to 224 °C
14 | Cc1c(C(=O)C(N)=O)c2c(OCC(=O)O)cc3c(c2n1Cc1ccccc1-c1ccccc1)CCC3 [Example 19, 2-[[3-(2-Amino-1,2-dioxoethyl)-2-methyl-1-(2-phenylbenzyl)-1,6,7,8-tetrahydrocyclopent[g]indol-4-yl]oxy]acetic acid] | 0.035 µM | 
15 | Cc1c(C(=O)C(N)=O)c2c(OCC(=O)O)cc3c(c2n1Cc1ccc(F)cc1)CCC3 [Example 11, 2-[[3-(2-Amino-1,2-dioxoethyl)-2-methyl-1-(4-fluorobenzyl)-1,6,7,8-tetrahydrocyclopent[g]indol-4-yl]oxy]acetic acid] | 0.082 µM | 
16 | COC(=O)COc1cc2c(c3c1c(C(=O)C(N)=O)c(C)n3Cc1ccccc1-c1ccc(Br)s1)CCC2 [Example 20, 2-[[3-(2-amino-1,2-dioxoethyl)-1-[2-(5-bromothiophen-2-yl)benzyl]-2-methyl-1,6,7,8-tetrahydrocyclopent[g]indol-4-yl]oxy]acetic acid methyl ester] | 0.638 µM | 
17 | CCc1c(C(=O)C(N)=O)c2c(OCC(=O)O)cc3c(c2n1Cc1ccccc1)CCCC3 [Example 13, 2-[[3-(2-Amino-1,2-dioxoethyl)-1-benzyl-2-ethyl-6,7,8,9-tetrahydro-1H-benz[g]indol-4-yl]oxy]acetic acid] | 0.011 µM | 
18 | COC(=O)COc1cc2c(c3c1c(C(=O)C(N)=O)c(C)n3Cc1ccccc1-c1ccccc1)CCC2 [Example 18, 2-[[3-(2-Amino-1,2-dioxoethyl)-2-methyl-1-(2-phenylbenzyl)-1,6,7,8-tetrahydrocyclopent[g]indol-4-yl]oxy]acetic acid methyl ester] | 0.19 µM | 
19 | CCc1c(C(=O)C(N)=O)c2c(OCC(=O)OC)cc3c(c2n1Cc1ccccc1)CCCC3 [Example 12, 2-[[3-(2-Amino-1,2-dioxoethyl)-1-benzyl-2-ethyl-6,7,8,9-tetrahydro-1H-benz[g]indol-4-yl]oxy]acetic acid methyl ester] | 0.1 µM | 
20 | Cc1c(C(=O)C(N)=O)c2c(OCC(=O)NS(=O)(=O)c3ccccc3)cc3c(c2n1Cc1ccccc1)CCC3 [Example 5, 2-[4-(2-Benzenesulfonylamino-2-oxoethoxy)-1-benzyl-2-methyl-1,6,7,8-tetrahydro-1-aza-as-indacen-3-yl]-2-oxoacetamide] | 0.007 µM | 
21 | Cc1c(C(=O)C(N)=O)c2c(OCC(=O)O)cc3c(c2n1Cc1ccccc1-c1ccc(Br)s1)CCC3 [Example 21, 2-[[3-(2-amino-1,2-dioxoethyl)-2-methyl-1-[2-(5-bromothiophen-2-yl)benzyl]-1,6,7,8-tetrahydrocyclopent[g]indol-4-yl]oxy]acetic acid] | 0.044 µM | 
